Source: US8835433B2, “Optically pure diastereomers of 10-Propargyl-10-deazaaminopterin and methods of using same for the treatment of cancer” (Allos Therapeutics, Inc., priority 2010, dated 2014)
pIC50: −log10 of the molar value. Like-named read-outs stand apart in the source and are kept apart here.

What was measured:
[1] = system: CWR22-RV1 (prostate) cell lines; test: MTS growth inhibition assay, CWR22-RV1; format: cell-based; settings: Homo sapiens, CWR22Rv1, separate experiments
[2] = Pharmacokinetics in rat (PDX-T-07034-R); format: in vivo; settings: plasma, 5 mg/kg; for half-life: read-out: t1/2 term
Protocol: Bioanalytical methods were developed and validated for quantitation of the 2 pralatrexate C10 diastereomers (PDX-10a and PDX-10b) in human, rat and dog plasma and urine. The basic bioanalytical method involves extraction of PDX-10a and PDX-10b from the matrix utilizing C18 solid-phase extraction (SPE) cartridges followed by derivatization (methylation with acetyl chloride) of the diastereomers for separation detection. The derivatized extracts are injected on a chiral high-performance liquid chromatography (HPLC) column for quantitation of each diastereomer by liquid chromatography-tandem mass spectrometry (LC/MS/MS). The lower limit of quantitation (LLOQ) for both diastereomers in plasma and urine matrices was 0.5 ng/mL. […]

[3] = Population pharmacokinetics in cancer patients after racemic PDX; settings: 3-compartment model, 154 cancer patients, IV racemic PDX
Protocol: Population (POP) pharmacokinetic (PK) parameters and effects of covariate factors (COV) for PDX-10a and PDX-10b after administration of racemic PDX in cancer patients were analyzed. POPPK data were pooled from 3 studies: 1) a phase 1 study in non-small lung cancer patients with intravenous (IV) doses of 150-325 mg/m^2, 2) a phase 1 study in advanced cancer patients with IV doses of 80-140 mg/m^2 plus a taxane, and 3) a phase 2 study in patients with relapsed or refractory PTCL at a dose of 30 mg/m^2/week IV. POP PK data for each diastereomer were analyzed using nonlinear mixed effects modeling with first-order conditional estimation. Model qualification included non-parametric bootstrap and predictive checks. Results: The POP PK database was comprised of 154 patients (94 males & 60 females, ages 21-85 years, weights 42.9-158 kg), contributing 1176 PDX-10a and 1173 PDX-10b plasma concentrations.

cancer cell lines = test: In vitro cytotoxicity in additional solid and heme cancer cell lines; format: cell-based; settings: some / other cell lines (T-cell lymphoma, multiple myeloma, others); Example 5
Protocol: Additional cancer cell lines can be tested in accordance with the methods outlined in Example 3. Cancer cell lines for T-cell lymphoma, multiple myeloma, hematologic malignancies, head and neck cancer, cancer of the gastrointestinal tract, ovarian cancer, and osteosarcoma are tested with PDX-10a and PDX-10b.

[4] = system: Type II collagen arthritis; test: Type II collagen arthritis mouse model; format: in vivo; settings: DBA/1 mice, some / other components/aspects of the arthritis, Example 7
Protocol: The study uses a mouse model of inflammatory disease that occurs in response to an antigenic challenge with Type II collagen according to method described in Nature, 283, 666-668 […]. DBA/1 mice are immunized with a suspension of fetal bovine Type II collagen (1 mg/ml) prepared in complete Freund's adjuvant. The primary injection is given using 0.1 ml of the collagen emulsion giving a total of 0.1 mg of Type II collagen per mouse. The animals are given a booster injection of Type II collagen (100 μg in 0.01M acetic acid) on day 21 by intraperitoneal injection.
The effect of methotrexate and test compounds racemic PDX, PDX-10a and PDX-10b on the extent of inflammation is determined by visual observation and by direct analysis of paw swelling using caliper measurements.

[5] = system: type II collagen arthritis; test: Type II collagen arthritis rat model; format: in vivo; settings: female Lewis rats, 0.075, 0.05 or 0.025 mg/kg qd; some / other components/aspects of the arthritis; Example 8
Protocol: Female Lewis rats with 17-day developing type II collagen arthritis are treated once daily (qd), orally or intravenously, on days 0-16 of the study with saline vehicle (qd), with Methotrexate (MTX, 0.075, 0.05, or 0.025 mg/kg), or racemic PDX, PDX-10a and PDX-10b (0.075, 0.05, or 0.025 mg/kg). Animals are terminated on study day 17. Efficacy evaluation is based on ankle caliper measurements, expressed as area under the curve (AUC), and terminal hind paw weights, and histopathologic evaluation of ankles and knees.

[6] = both sexes, Day 1, 5 mg/kg, range of the mean for males and females and for PDX-10a and PDX-10b, read-out: CLtot
[7] = both sexes, Day 1, 5 mg/kg, range of the mean for males and females and for PDX-10a and PDX-10b, read-out: Vdss
[8] = both sexes, Day 1, 5 mg/kg, range of the mean for males and females and for PDX-10a and PDX-10b
[9] = both sexes, Day 1, calculated using average BW 0.35 kg, read-out: Vdss relative to BW
[10] = both sexes, Day 85, 5 mg/kg, range of the mean for males and females and for PDX-10a and PDX-10b, read-out: CLtot
[11] = both sexes, Day 85, 5 mg/kg, range of the mean for males and females and for PDX-10a and PDX-10b, read-out: Vdss
[12] = both sexes, Day 85, 5 mg/kg, range of the mean for males and females and for PDX-10a and PDX-10b
[13] = Day 1, calculated using average BW 0.35 kg, read-out: CLtot relative to BW

SMILES	pIC50 [1]	clearance [2, 6] [mL/min]	Vd [2, 7] [L]	half-life [2, 8] [h]	Vd [2, 9] [L/kg]	clearance [2, 10] [mL/min]	Vd [2, 11] [L]	half-life [2, 12] [h]	clearance [2, 13] [mL/min/kg]	1st inter-CMT CL, POP PK parameter estimate [3] [L/h]	2nd inter-CMT CL, POP PK parameter estimate [3] [L/h]	clearance (CL), POP PK parameter estimate [3] [L/h]	volume for CMT 1, POP PK parameter estimate [3] [L]	volume for CMT 2, POP PK parameter estimate [3] [L]	volume for CMT 3, POP PK parameter estimate [3] [L]	cytotoxic activity relative to racemate and other diastereomer (cancer cell lines)	antiarthritic activity relative to racemate and other diastereomer [4]	antiarthritic activity relative to racemate and other diastereomer [5]
C#CC[C@H](Cc1cnc2nc(N)nc(N)c2n1)c1ccc(C(=O)N[C@@H](CCC(=O)O)C(=O)O)cc1 (single isomer, unassigned) [PDX-10b]	8.07	2.9 to 4	0.07 to 0.89	1 to 20	0.2 to 2.5	3.4 to 3.9	0.15 to 0.18	1 to 6	~10	5.53	0.601	17.2	8.89	6.79	12.65	increased activity relative to racemic PDX and/or PDX-10a	increased activity relative to racemic PDX and/or PDX-10a	increased activity relative to racemic PDX and/or PDX-10a
C#CC[C@@H](Cc1cnc2nc(N)nc(N)c2n1)c1ccc(C(=O)N[C@@H](CCC(=O)O)C(=O)O)cc1 (single isomer, unassigned) [PDX-10a]	7.88	2.9 to 4	0.07 to 0.89	1 to 20	0.2 to 2.5	3.4 to 3.9	0.15 to 0.18	1 to 6	~10	6.97	1.43	35.0	11.0	9.71	50.6	increased activity relative to racemic PDX and/or PDX-10b	increased activity relative to racemic PDX and/or PDX-10b	increased activity relative to racemic PDX and/or PDX-10b
